Assay results published in US20240158404A1, “MODULATORS OF ALPHA-1 ANTITRYPSIN” (Vertex Pharmaceuticals Incorporated, priority 2022, published 2024).

Biological target: T1, AAT (Homo sapiens, UniProt P01009, E366K)
T1 construct: expressed in transfected cells; host or cells: NL20 human bronchial epithelial cells (NL20-SI cell line), with doxycycline added alongside the compounds
Experiment: Compound Quality score (potency in AAT functional assay multiplied by unbound clearance)
Conditions: compound potency (EC50) x unbound clearance; class symbols
Source text: As used herein, the term “Compound Quality” refers to the potency of a compound multiplied (x) by the compound's unbound clearance as measured using the assays described in Example 6.
The terms “unbound clearance” refer to unbound intrinsic clearance (unbound CLint) in hepatocytes—the intrinsic clearance a drug would have in the absence of protein binding. Unbound CLint=CLint,hep/fu,hep, where CLint,hep is intrinsic clearance in hepatocytes and fu,hep is unbound fraction in hepatocytes.
A key consideration for the selection of compounds suitable for clinical development is the projection of human dose as described in Equations 1-3. Two key parameters that comprise the dose equation are the unbound clearance of a compound and the plasma efficacious exposure (also referred to herein as compound potency). Together these parameters are known to one skilled in the art as a measurement of Compound Quality and suitability for advancement into clinical development. Thus, when evaluating AAT modulator compounds, one needs to consider both the potency and unbound clearance parameters (i.e., Compound Quality). The relationship between these two parameters can be challenging to predict.
The values provided in the table below are calculated by multiplying the EC50 of each of the compounds by the result from the clearance assay procedures described in Section C above and rounded to two significant figures. In the table below, the following meanings apply for Compound Quality (i.e., compound potency x unbound clearance) values: “++++” means ≤0.2; “+++” means >0.20 and ≤0.30; “++” means >0.30 and ≤0.40; “+” means >0.40 and ≤0.50.

T1 sequence (P01009 25-418 E366K): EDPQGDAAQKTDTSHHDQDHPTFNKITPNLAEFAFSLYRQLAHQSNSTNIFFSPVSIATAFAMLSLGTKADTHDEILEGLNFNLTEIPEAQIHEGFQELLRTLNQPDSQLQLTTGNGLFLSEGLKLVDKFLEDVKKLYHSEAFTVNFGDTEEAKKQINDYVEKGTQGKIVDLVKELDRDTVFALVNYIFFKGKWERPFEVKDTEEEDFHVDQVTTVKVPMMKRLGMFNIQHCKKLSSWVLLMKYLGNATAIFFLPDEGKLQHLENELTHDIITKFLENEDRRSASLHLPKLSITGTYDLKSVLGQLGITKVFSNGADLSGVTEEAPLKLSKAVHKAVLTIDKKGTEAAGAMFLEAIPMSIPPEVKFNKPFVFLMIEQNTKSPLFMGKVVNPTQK

| SMILES | Compound Quality |
| --- | --- |
| CC[C@](O)(COC)c1c(-c2ccc(C(=O)O)cc2)c2c(F)c3[nH]ncc3cc2n1-c1ccc(F)c(F)c1 [Compound 6] | ++ (“++” means >0.30 and ≤0.40) |
| CC[C@](O)(COC)c1c(-c2ccc(C(=O)O)cc2)c2c(F)c3[nH]ncc3cc2n1-c1ccc(F)c(C)c1 [Compound 7] | +++ (“+++” means >0.20 and ≤0.30) |
| CC[C@](O)(COC)c1c(-c2ccc(C(=O)O)cc2)c2c(F)c3[nH]ncc3cc2n1-c1ccc(F)c(OC)c1 [Compound 8] | + (“+” means >0.40 and ≤0.50) |
| CCOCC(O)(CC)c1c(-c2ccc(C(=O)O)cc2)c2c(F)c3[nH]ncc3cc2n1-c1ccc(F)c(OC)c1 (stereo not drawn) [Compound 9] | +++ (“+++” means >0.20 and ≤0.30) |
| [2H]C([2H])([2H])Oc1cc(-n2c([C@@](O)(CC)COC)c(-c3ccc(C(=O)O)cc3)c3c(F)c4[nH]ncc4cc32)ccc1F [Compound 10] | ++ (“++” means >0.30 and ≤0.40) |
| CCOCC(O)(CC)c1c(-c2ccc(C(=O)O)cc2)c2c(F)c3[nH]ncc3cc2n1-c1ccc(F)c(F)c1 (stereo not drawn) [Compound 11] | +++ (“+++” means >0.20 and ≤0.30) |
| [2H]C([2H])([2H])C([2H])([2H])C(O)(COC)c1c(-c2ccc(C(=O)O)cc2)c2c(F)c3[nH]ncc3cc2n1-c1ccc(F)c(Cl)c1 (stereo not drawn) [Compound 12] | +++ (“+++” means >0.20 and ≤0.30) |
| CCC(O)(COC(C)C)c1c(-c2ccc(C(=O)O)cc2)c2c(F)c3[nH]ncc3cc2n1-c1ccc(F)c(OC)c1 (stereo not drawn) [Compound 13] | +++ (“+++” means >0.20 and ≤0.30) |
| CCOCC(O)(c1c(-c2ccc(C(=O)O)cc2)c2c(F)c3[nH]ncc3cc2n1-c1ccc(F)cc1)C1CC1 (stereo not drawn) [Compound 14] | ++ (“++” means >0.30 and ≤0.40) |
| CC[C@@](O)(COC)c1c(-c2ccc(C(=O)O)cc2)c2c(F)c3[nH]ncc3cc2n1-c1cccc(F)c1 [Compound 15] | ++ (“++” means >0.30 and ≤0.40) |
| CC[C@@](O)(COC)c1c(-c2ccc(C(=O)O)cc2)c2c(F)c3[nH]ncc3cc2n1-c1cc(F)c(F)c(OC)c1 [Compound 16] | ++ (“++” means >0.30 and ≤0.40) |
| CCC(O)(COC)c1c(-c2ccc(C(=O)O)c(C)c2)c2c(F)c3[nH]ncc3cc2n1-c1ccc(F)c(F)c1 (stereo not drawn) [Compound 17] | +++ (“+++” means >0.20 and ≤0.30) |
| [2H]C([2H])([2H])C([2H])([2H])C(O)(COC)c1c(-c2ccc(C(=O)O)cc2)c2c(F)c3[nH]ncc3cc2n1-c1ccc(F)cc1 (stereo not drawn) [Compound 18] | +++ (“+++” means >0.20 and ≤0.30) |
| [2H]C([2H])([2H])C([2H])([2H])C(O)(COC)c1c(-c2ccc(C(=O)O)cc2)c2c(F)c3[nH]ncc3cc2n1-c1ccc(F)c(C)c1 (stereo not drawn) [Compound 19] | +++ (“+++” means >0.20 and ≤0.30) |
| [2H]C([2H])([2H])C([2H])([2H])C(O)(COC)c1c(-c2ccc(C(=O)O)cc2)c2c(F)c3[nH]ncc3cc2n1-c1ccc(F)c(OC)c1 (stereo not drawn) [Compound 20] | ++ (“++” means >0.30 and ≤0.40) |
| [2H]C([2H])([2H])C([2H])([2H])C(O)(COC)c1c(-c2ccc(C(=O)O)cc2)c2c(F)c3[nH]ncc3cc2n1-c1ccc(F)c(F)c1 (stereo not drawn) [Compound 21] | ++ (“++” means >0.30 and ≤0.40) |
| [2H]C([2H])([2H])Oc1cc(-n2c(C3(O)CCCCC3OC)c(-c3ccc(C(=O)O)cc3)c3c(F)c4[nH]ncc4cc32)ccc1F (stereo not drawn) [Compound 22] | ++++ (“++++” means ≤0.2) |

| SMILES | Compound Quality |
| --- | --- |
| COC1CCCCC1(O)c1c(-c2ccc(C(=O)O)cc2)c2c(F)c3[nH]ncc3cc2n1-c1ccc(F)c(F)c1 (stereo not drawn) [Compound 23] | +++ (“+++” means >0.20 and ≤0.30) |
| COc1cc(-n2c(C3(O)CCCCC3OC)c(-c3ccc(C(=O)O)cc3)c3c(F)c4[nH]ncc4cc32)ccc1F (stereo not drawn) [Compound 24] | +++ (“+++” means >0.20 and ≤0.30) |
| COC1CCCCC1(O)c1c(-c2ccc(C(=O)O)cc2)c2c(F)c3[nH]ncc3cc2n1-c1cccc(F)c1 (stereo not drawn) [Compound 25] | +++ (“+++” means >0.20 and ≤0.30) |
| COC1CCCCC1(O)c1c(-c2ccc(C(=O)O)cc2)c2c(F)c3[nH]ncc3cc2n1-c1ccc(F)cc1 (stereo not drawn) [Compound 26] | ++++ (“++++” means ≤0.2) |
| COC1CCCC1(O)c1c(-c2ccc(C(=O)O)cc2)c2c(F)c3[nH]ncc3cc2n1-c1ccc(F)cc1 (stereo not drawn) [Compound 27] | ++ (“++” means >0.30 and ≤0.40) |
| COC1CCCC1(O)c1c(-c2ccc(C(=O)O)cc2)c2c(F)c3[nH]ncc3cc2n1-c1ccc(F)c(F)c1 (stereo not drawn) [Compound 28] | +++ (“+++” means >0.20 and ≤0.30) |
| [2H]C1([2H])C([2H])([2H])C([2H])([2H])[C@](O)(c2c(-c3ccc(C(=O)O)cc3)c3c(F)c4[nH]ncc4cc3n2-c2ccc(F)cc2)[C@@]([2H])(OC)C1([2H])[2H] [Compound 29] | ++++ (“++++” means ≤0.2) |
| [2H]C1([2H])C([2H])([2H])C([2H])([2H])[C@](O)(c2c(-c3ccc(C(=O)O)cc3)c3c(F)c4[nH]ncc4cc3n2-c2ccc(F)c(OC)c2)[C@@]([2H])(OC)C1([2H])[2H] [Compound 30] | ++++ (“++++” means ≤0.2) |
| [2H]C([2H])([2H])Oc1cc(-n2c([C@@]3(O)C([2H])([2H])C([2H])([2H])C([2H])([2H])C([2H])([2H])[C@]3([2H])OC)c(-c3ccc(C(=O)O)cc3)c3c(F)c4[nH]ncc4cc32)ccc1F [Compound 31] | ++ (“++” means >0.30 and ≤0.40) |
| [2H]C([2H])([2H])Oc1cc(-n2c(C3(O)C([2H])([2H])C([2H])([2H])C([2H])([2H])C([2H])([2H])C3([2H])OC([2H])([2H])[2H])c(-c3ccc(C(=O)O)cc3)c3c(F)c4[nH]ncc4cc32)ccc1F (stereo not drawn) [Compound 32] | +++ (“+++” means >0.20 and ≤0.30) |
| [2H]C([2H])([2H])OCC(O)(CC)c1c(-c2ccc(C(=O)O)cc2)c2c(F)c3[nH]ncc3cc2n1-c1ccc(F)c(F)c1 (stereo not drawn) [Compound 33] | +++ (“+++” means >0.20 and ≤0.30) |
| [2H]C([2H])([2H])C([2H])([2H])C(O)(COC)c1c(-c2ccc(C(=O)O)cc2)c2c(F)c3[nH]ncc3cc2n1-c1ccc(F)c(F)c1 (stereo not drawn) [Compound 34] | ++++ (“++++” means ≤0.2) |
| CCC(O)(COC)c1c(-c2ccc(C(=O)O)c(C)c2)c2c(F)c3[nH]ncc3cc2n1-c1ccc(F)cc1 (stereo not drawn) [Compound 35] | ++++ (“++++” means ≤0.2) |
| CCC(O)(COC)c1c(-c2ccc(C(=O)O)c(C)c2)c2c(F)c3[nH]ncc3cc2n1-c1ccc(F)c(Cl)c1 (stereo not drawn) [Compound 36] | +++ (“+++” means >0.20 and ≤0.30) |
| [2H]C([2H])([2H])C([2H])([2H])C(O)(COC)c1c(-c2ccc(C(=O)O)cc2)c2c(F)c3[nH]ncc3cc2n1-c1ccc(F)cc1 (stereo not drawn) [Compound 37] | +++ (“+++” means >0.20 and ≤0.30) |
| [2H]C([2H])([2H])C([2H])([2H])C(O)(COC)c1c(-c2ccc(C(=O)O)cc2)c2c(F)c3[nH]ncc3cc2n1-c1ccc(F)c(C)c1 (stereo not drawn) [Compound 38] | +++ (“+++” means >0.20 and ≤0.30) |
